Laboratory results taken from patent publication US20020115640A1, “Farnesyltransferase inhibitors” (priority 2000, published 2002).

Biological target: T1, farnesyltransferase (Rattus norvegicus, UniProt Q02293+Q04631)
T1 construct: The enzyme can be purified according to Cell, 62: 81-88 (1990), utilizing steps one, two, and three; from tissue; host or cells: rat brain
Test: Inhibition of farnesyltransferase (3H-farnesyldiphosphate / H-Ras filter assay)
Format: biochemical
Conditions: 3H-farnesyldiphosphate 0.6 μM, H-Ras 5.0 μM, 37° C., 30 minutes; for inhibition at 0.01 µM: test compound at 10^−8 M; for inhibition at 0.1 µM: test compound at 10^−7 M
Text: The ability of the compounds of the present invention to inhibit farnesyltransferase can be measured according to the method described in J. Biol. Chem., 266: 14603 (1991) or J. Biol. Chem., 270:660-664 (1995). Procedures for determination of the inhibition of farnesylation of the oncogene protein Ras are described in J. Biol. Chem., 266:15575-15578 (1991) and U.S. Pat. No. 5,245,061. Inhibition of rat brain farnesyltransferase can also be measured in vitro using an Amersham Life Science commercial scintillation proximity assay kit and substituting a biotin-K Ras B fragment (0.1 μM final concentration) for the biotin-lamin substrate provided by Amersham. The enzyme can be purified according to Cell, 62: 81-88 (1990), utilizing steps one, two, and three. […] The percent inhibition of the farnesylation caused by the compounds of the present invention (at 10^−6 M) compared to an uninhibited control sample can be evaluated in the same Amersham test system.
The mixture was brought to 37° C., treated with enzyme, incubated for 30 minutes, treated with 1 M HCl/ethanol (1 mL) to stop the reaction, stirred for 15 minutes at room temperature, diluted with ethanol (2 mL), filtered through a 2.5 cm glass microfiber filter (Whatman) with ethanol rinses (4×2 mL). The glass transferred to a scintillation vial and treated with scintillation fluid (5 mL). The radioisotope retained on the glass fiber filter was counted and reflected the activity of the enzyme.

T1 sequence (Q02293 whole entry, one chain of several): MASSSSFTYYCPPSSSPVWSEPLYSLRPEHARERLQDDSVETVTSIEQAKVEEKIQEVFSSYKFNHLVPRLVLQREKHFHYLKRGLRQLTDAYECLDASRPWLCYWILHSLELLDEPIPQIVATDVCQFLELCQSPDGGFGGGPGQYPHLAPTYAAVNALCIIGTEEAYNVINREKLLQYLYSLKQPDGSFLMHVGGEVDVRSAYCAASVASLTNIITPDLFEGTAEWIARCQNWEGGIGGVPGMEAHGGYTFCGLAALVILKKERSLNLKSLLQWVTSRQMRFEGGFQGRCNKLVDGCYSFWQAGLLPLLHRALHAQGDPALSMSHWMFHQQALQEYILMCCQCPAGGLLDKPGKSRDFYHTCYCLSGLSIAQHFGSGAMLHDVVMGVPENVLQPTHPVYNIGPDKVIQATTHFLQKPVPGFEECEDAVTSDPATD

inhibition at 0.01 µM	inhibition at 0.1 µM	Structure (SMILES)
95%		Cn1cncc1C(F)(COc1ccc(C#N)cc1-c1cc(Cl)cc(Cl)c1)c1ccc(C#N)cc1 (stereo not shown) [Example 74, 3′,5′-dichloro-6-(2-(4-cyanophenyl)-2-fluoro-2-(1-methyl-1H-imidazol-5-yl)ethoxy)-1,1′-biphenyl-3-carbonitrile]
	87%	Cn1cncc1C(OCc1ccc(Cl)cc1-c1cccc(Cl)c1Cl)c1ccc(C#N)cc1 (stereo not shown) [Example 25, 4-((1-methyl-1H-imidazol-5-yl)((2′, 3′,5-trichloro(1,1′-biphenyl)-2-yl)methoxy)methyl)benzonitrile]
	96%	Cn1cncc1C(OCc1ccc(Cl)cc1-c1cccc(C(F)(F)F)c1)c1ccc(C#N)cc1 (stereo not shown) [Example 8, 4-(((5-chloro-3′-(trifluoromethyl)(1,1′-biphenyl)-2-yl)methoxy)(1-methyl-1H-imidazol-5-yl)methyl)benzonitrile]
	74%	COc1cc(-c2cccc(Cl)c2)c(COC(c2ccc(C#N)cc2)c2cncn2C)cn1 (stereo not shown) [Example 39, 4-(((4-(3-chlorophenyl)-6-methoxy-3-pyridinyl)methoxy)(1-methyl-1H-imidazol-5-yl)methyl)benzonitrile]
	> 85%	Cn1cncc1C(OCc1ccc(Cl)cc1-c1ccc(Cl)c(Cl)c1)c1ccc(C#N)cc1 (stereo not shown) [Example 28, 4-((1-methyl-1H-imidazol-5-yl)((3′,4′,5-trichloro(1,1′-biphenyl)-2-yl)methoxy)methyl)benzonitrile]
	94%	COc1ccc(OC)c(-c2cc(Cl)ccc2COC(c2ccc(C#N)cc2)c2cncn2C)c1 (stereo not shown) [Example 20, 4-(((5-chloro-2′,5′-dimethoxy(1,1′-biphenyl)-2-yl)methoxy)(1-methyl-1H-imidazol-5-yl)methyl)benzonitrile]
	> 85%	Cc1cccc(-c2cc(Cl)ccc2COC(c2ccc(C#N)cc2)c2cncn2C)c1 (stereo not shown) [Example 7, 4-(((5-chloro-3′-methyl(1,1′-biphenyl)-2-yl)methoxy)(1-methyl-1H-imidazol-5-yl)methyl)benzonitrile]
	79%	COc1ccccc1-c1cc(Cl)ccc1COC(c1ccc(C#N)cc1)c1cncn1C (stereo not shown) [Example 5, 4-(((5-chloro-2′-methoxy(1,1′-biphenyl)-2-yl)methoxy)(1-methyl-1H-imidazol-5-yl)methyl)benzonitrile]
93%		Cn1cncc1C(F)(COc1ccc(C#N)cc1-c1ccc(F)c(Cl)c1)c1ccc(C#N)cc1 (stereo not shown) [Example 66, 3′-chloro-6-(2-(4-cyanophenyl)-2-fluoro-2-(1-methyl-1H-imidazol-5-yl)ethoxy)-4′-fluoro-1,1′-biphenyl-3-carbonitrile]
93%		Cn1cncc1C(F)(COc1ccc(C#N)cc1-c1ccc(F)c(F)c1)c1ccc(C#N)cc1 (stereo not shown) [Example 62, 6-(2-(4-cyanophenyl)-2-fluoro-2-(1-methyl-1H-imidazol-5-yl)ethoxy)-3′,4′-difluoro-1,1′-biphenyl-3-carbonitrile]
96%		Cn1cncc1C(N)(COc1ccc(C#N)cc1-c1ccc(OC(F)(F)F)cc1)c1ccc(C#N)cc1 (stereo not shown) [Example 83, 6-(2-amino-2-(4-cyanophenyl)-2-(1-methyl-1H-imidazol-5-yl)ethoxy)-4′-(trifluoromethoxy)-1,1′-biphenyl-3-carbonitrile]
	92%	Cn1cncc1C(OCc1ccc(Cl)cc1-c1cccc2ccccc12)c1ccc(C#N)cc1 (stereo not shown) [Example 12, 4-(((4-chloro-2-(1-naphthyl)benzyl)oxy)(1-methyl-1H-imidazol-5-yl)methyl)benzonitrile]
	92%	Cn1cncc1C(OCc1ccc(Cl)cc1-c1ccc(Cl)cc1)c1ccc(C#N)cc1 (stereo not shown) [Example 11, 4-(((4′,5-dichloro(1,1′-biphenyl)-2-yl)methoxy)(1-methyl-1H-imidazol-5-yl)methyl)benzonitrile]
90%		Cn1cncc1C(OCc1ccc(C#N)cc1C(=O)Nc1cccc(Cl)c1)c1ccc(C#N)cc1 (stereo not shown) [Example 88, N-(3-chlorophenyl)-5-cyano-2-(((4-cyanophenyl)(1-methyl-1H-imidazol-5-yl)methoxy)methyl)benzamide]
	96%	Cn1cncc1C(OCc1ccc(Cl)nc1-c1cccc(Cl)c1)c1ccc(C#N)cc1 (stereo not shown) [Example 35, 4-(((6-chloro-2-(3-chlorophenyl)-3-pyridinyl)methoxy)(1-methyl-1H-imidazol-5-yl)methyl)benzonitrile]
	82%	CC(=O)c1ccccc1-c1cc(Cl)ccc1COC(c1ccc(C#N)cc1)c1cncn1C (stereo not shown) [Example 15, 4-(((2′-acetyl-5-chloro(1,1′-biphenyl)-2-yl)methoxy)(1-methyl-1H-imidazol-5-yl)methyl)benzonitrile]

inhibition at 0.01 µM	inhibition at 0.1 µM	Structure (SMILES)
	> 83%	Cn1cncc1C(OCc1cnc(C#N)cc1-c1cccc(Cl)c1)c1ccc(C#N)cc1 (stereo not shown) [Example 40, 4-(3-chlorophenyl)-5-(((4-cyanophenyl)(1-methyl-1H-imidazol-5-yl)methoxy)methyl)-2-pyridinecarbonitrile]
97%		Cn1cncc1C(F)(COc1ccc(C#N)cc1-c1cccc(Cl)c1)c1ccc(C#N)cc1 (stereo not shown) [Example 78, 3′-chloro-6-(2-(4-cyanophenyl)-2-fluoro-2-(1-methyl-1H-imidazol-5-yl)ethoxy)-1,1′-biphenyl-3-carbonitrile]
90%		Cn1cncc1C(F)(COc1ccc(C#N)cc1-c1ccc2c(c1)OC(F)(F)O2)c1ccc(C#N)cc1 (stereo not shown) [Example 80, 4-(2-(4-cyanophenyl)-2-fluoro-2-(1-methyl-1H-imidazol-5-yl)ethoxy)-3-(2,2-difluoro-1,3-benzodioxol-5-yl)benzonitrile]
	87%	Cn1cncc1C(OCc1cn(C)c(=O)cc1-c1cccc(Cl)c1)c1ccc(C#N)cc1 (stereo not shown) [Example 45, 4-(((4-(3-chlorophenyl)-1-methyl-6-oxo-1,6-dihydro-3-pyridinyl)methoxy)(1-methyl-1H-imidazol-5-yl)methyl)benzonitrile]
	92%	Cn1cncc1C(OCc1ccc(Cl)cc1-c1ccc(C=O)s1)c1ccc(C#N)cc1 (stereo not shown) [Example 29, 4-(((4-chloro-2-(5-formyl-2-thienyl)benzyl)oxy)(1-methyl-1H-imidazol-5-yl)methyl)benzonitrile]
	> 85%	Cc1ccc(-c2cc(Cl)ccc2COC(c2ccc(C#N)cc2)c2cncn2C)cc1C (stereo not shown) [Example 17, 4-(((5-chloro-3′,4′-dimethyl(1,1′-biphenyl)-2-yl)methoxy)(1-methyl-1H-imidazol-5-yl)methyl)benzonitrile]
	90%	Cn1cncc1C(OCc1ccc(Cl)cc1-c1ccccc1Cl)c1ccc(C#N)cc1 (stereo not shown) [Example 3, 4-(((2′,5-dichloro(1,1′-biphenyl)-2-yl)methoxy)(1-methyl-1H-imidazol-5-yl)methyl)benzonitrile]
96%		Cn1cncc1C(O)(COc1ccc(C#N)cc1-c1cc(Cl)cc(Cl)c1)c1ccc(C#N)cc1 (stereo not shown) [Example 73, 3′,5′-dichloro-6-(2-(4-cyanophenyl)-2-hydroxy-2-(1-methyl-1H-imidazol-5-yl)ethoxy)-1,1′-biphenyl-3-carbonitrile]
94%		CCCOc1ccc(-c2cc(C#N)ccc2COC(c2ccc(C#N)cc2)c2cncn2C)cn1 (stereo not shown) [Example 92, 4-(((4-cyanophenyl)(1-methyl-1H-imidazol-5-yl)methoxy)methyl)-3-(6-propoxypyridin-3-yl)benzonitrile]
	80%	Cn1cncc1C(OCc1cnc(F)cc1-c1cccc(Cl)c1)c1ccc(C#N)cc1 (stereo not shown) [Example 38, 4-(((4-(3-chlorophenyl)-6-fluoro-3-pyridinyl)methoxy)(1-methyl-1H-imidazol-5-yl)methyl)benzonitrile]
95%		Cn1cncc1C(F)(COc1ccc(C#N)cc1-c1cccc(F)c1)c1ccc(C#N)cc1 (stereo not shown) [Example 76, 6-(2-(4-cyanophenyl)-2-fluoro-2-(1-methyl-1H-imidazol-5-yl)ethoxy)-3′-fluoro-1,1′-biphenyl-3-carbonitrile]
92%		COc1cccc(-c2cc(C#N)ccc2N(C)CC(O)(c2ccc(C#N)cc2)c2cncn2C)c1 (stereo not shown) [Example 84, 6-((2-(4-cyanophenyl)-2-hydroxy-2-(1-methyl-1H-imidazol-5-yl)ethyl)(methyl)amino)-3′-methoxy-1,1′-biphenyl-3-carbonitrile]
73%		Cn1cncc1C(F)(COc1ccc(C#N)cc1-c1cccc2cccnc12)c1ccc(C#N)cc1 (stereo not shown) [Example 60, 4-(2-(4-cyanophenyl)-2-fluoro-2-(1-methyl-1H-imidazol-5-yl)ethoxy)-3-quinolin-8-ylbenzonitrile]
	> 95%	CCOc1cccc(-c2cc(Cl)ccc2COC(c2ccc(C#N)cc2)c2cncn2C)c1 (stereo not shown) [Example 19, 4-(((5-chloro-3′-ethoxy(1,1′-biphenyl)-2-yl)methoxy)(1-methyl-1H-imidazol-5-yl)methyl)benzonitrile]
96%		Cn1cncc1C(O)(COc1ccc(C#N)cc1-c1ccc(F)c(F)c1)c1ccc(C#N)cc1 (stereo not shown) [Example 61, 6-(2-(4-cyanophenyl)-2-hydroxy-2-(1-methyl-1H-imidazol-5-yl)ethoxy)-3′,4′-difluoro-1,1′-biphenyl-3-carbonitrile]
